Measured values reported in PMC11963559, “Identification of novel thiazole derivatives as flaviviral protease inhibitors effective against Dengue (DENV2) and Japanese encephalitis viruses” (Antimicrobial Agents and Chemotherapy, 2025).

Biological target: T1, DENV2 NS2B–NS3 protease (Dengue virus type 2, UniProt P14340)
T1 construct: Activity of recombinant dengue 2 virus NS3 protease in the presence of a truncated NS2B co-factor; The N-terminal domain of NS3 contains a highly conserved protease-active core; made in house; host or cells: Escherichia coli BL21(DE3)
T1 sequence (P14340 1476-1653): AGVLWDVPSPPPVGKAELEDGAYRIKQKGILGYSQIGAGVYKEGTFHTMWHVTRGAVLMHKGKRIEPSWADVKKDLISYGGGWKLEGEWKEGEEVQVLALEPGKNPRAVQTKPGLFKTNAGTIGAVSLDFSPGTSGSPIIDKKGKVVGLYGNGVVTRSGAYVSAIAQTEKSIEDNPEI
T1 sequence (P14340 1398-1437): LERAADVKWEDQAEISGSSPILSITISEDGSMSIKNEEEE
Assay: In vitro DENV2 NS2B/NS3pro inhibition assay using a FRET substrate
Assay type: biochemical
Conditions: 5 µM substrate, 10 nM NS2b-NS3pro, compounds at 1, 10 and 100 µM, 1 h at RT; compounds 3s-3an
Protocol: To assess the anti-DENV NS2B–NS3 activity of the compounds, we expressed the DENV2 NS2B–NS3 protease in BL21DE3 cells and subsequently purified it using Ni-NTA affinity chromatography, as outlined in Materials and Methods ([39], [40]). The protease activity assay was performed using different concentrations (1, 2.5, 5, 10, 25, 50, 75, and 100 µM) of a fluorogenic substrate (Abs-Nle-Lys-Arg-Arg-Ser-3-(NO2)Tyr) at various time points (5, 15, 30, 45, and 60 min), as described previously ([39], [41]). […] Therefore, all subsequent assays were conducted with a 1 h incubation time.
The selected compounds were analyzed using in vitro protease assays performed in black 96-well plates. […] All assays were performed in triplicate. The release of free AMC was measured using a Varioskan LUX multimode microplate reader (Thermo Fisher Scientific) at excitation and emission wavelengths of 380 and 460 nm, respectively. Control fluorescence values obtained in the absence of inhibitors were considered 100%, and those obtained in the presence of inhibitors were calculated as the percentage of inhibition of the control using Microsoft Excel and plotted using Origin Pro 2023b. The background AMC in the absence of protease was subtracted before data analysis. Further, protease assay was done using different concentration of the compounds (1, 10, and 100 µM) to evaluate the IC50 for the in vitro assay. IC50 curves were fitted and determined by fitting the nonlinear equation in Origin2023b software. A similar approach was used to analyze the enzymatic kinetics of protease inhibition. The reaction progress was monitored by the release of free aminomethylcoumarin (AMC), as previously described. The substrate was incubated with or without the inhibitor in the aforementioned reaction buffer in the presence of varying concentrations of the substrate. The reactions were initiated by the addition of the NS2B–NS3 protease. Protease activity was monitored for 1 h based on the initial rate of increase in fluorescence intensity at 460 nm, with an excitation wavelength of 380 nm. The results were analyzed using Origin Pro 2023b and the Michaelis–Menten equation to obtain the apparent Michaelis–Menten constants and maximal velocities. All assays were performed in triplicate. For each tested compound, two different concentrations of the inhibitor (0, 10, and 25 µM) were used at various concentrations (0–250 μM) of the substrate. The mechanism of inhibition was determined by observing the deviations in the apparent Km and Vmax values.

In the case of `COc1ccc(OC)c(/C(C)=N/Nc2nc(-c3cccc([N+](=O)[O-])c3)cs2)c1` [3aa], the “IC50 (µM), DENV protease inhibitory activity” value was “completely lost its activity”.

Same assay, conditions: IC50 (µM), DENV2 NS2B–NS3 protease inhibitory activity, 5 µM substrate, 10 nM NS2b-NS3pro, compounds at 1, 10 and 100 µM, 1 h at RT; compounds 3a-3r

`O=[N+]([O-])c1cccc(-c2csc(N/N=C/c3cccc(Cl)c3)n2)c1` [3g] and `O=[N+]([O-])c1cccc(-c2csc(N/N=C/c3cccc(Br)c3)n2)c1` [3i] are within 1.5-fold of each other in IC50: 299 µM for the first, 413 µM for the second.

`Fc1ccccc1/C=N/Nc1nc(-c2ccc(Cl)cc2)cs1` [3o] and `Clc1ccc(-c2csc(N/N=C/c3ccccc3Br)n2)cc1` [3q] cannot be ordered by IC50: over 100 µM for the first, over 100 µM for the second.

Going from `COc1ccc(OC)c(/C=N/Nc2nc(-c3cccc([N+](=O)[O-])c3)cs2)c1` [3d] to `COc1ccc(/C=N/Nc2nc(-c3cccc([N+](=O)[O-])c3)cs2)cc1OC` [3e], the IC50 rises from 139 µM to 502 µM (3.6-fold).

First: O=[N+]([O-])c1cccc(-c2csc(N/N=C/c3ccccc3F)n2)c1 [3f]
Second: O=[N+]([O-])c1cccc(-c2csc(N/N=C/c3ccccc3Br)n2)c1 [3h]
The IC50 of the first is 2.9-fold lower: 117 µM for the first, 342 µM for the second.

`Cc1ccc(/C=N/Nc2nc(-c3cccc([N+](=O)[O-])c3)cs2)cc1` [3a] and `Cc1cc(C)cc(/C=N/Nc2nc(-c3cccc([N+](=O)[O-])c3)cs2)c1` [3b] cannot be ordered by IC50: over 100 µM for the first, over 100 µM for the second.

`COc1ccc(OC)c(/C=N/Nc2nc(-c3ccc(Cl)cc3)cs2)c1` [3m] and `COc1ccc(/C=N/Nc2nc(-c3ccc(Cl)cc3)cs2)cc1OC` [3n] are within 1.5-fold of each other in IC50: 216 µM for the first, 248 µM for the second.

`Cc1cc(C)cc(/C=N/Nc2nc(-c3ccc(Cl)cc3)cs2)c1` [3k] and `Cc1ccc(/C=N/Nc2nc(-c3ccc(Cl)cc3)cs2)cc1` [3j] cannot be ordered by IC50: over 100 µM for the first, 603 µM for the second.

`COc1ccccc1/C=N/Nc1nc(-c2cccc([N+](=O)[O-])c2)cs1` [3c] and `COc1ccccc1/C=N/Nc1nc(-c2ccc(Cl)cc2)cs1` [3l] cannot be ordered by IC50: 229 µM for the first, over 100 µM for the second.

`Clc1ccc(-c2csc(N/N=C/c3cccc(Br)c3)n2)cc1` [3r] and `Clc1ccc(-c2csc(N/N=C/c3cccc(Cl)c3)n2)cc1` [3p] cannot be ordered by IC50: over 100 µM for the first, over 100 µM for the second.

Same assay, conditions: IC50 (µM), DENV protease inhibitory activity, 5 µM substrate, 10 nM NS2b-NS3pro, compounds at 1, 10 and 100 µM, 1 h at RT; compounds 3ao–3av

Going from `C/C(=N\Nc1nc(-c2ccc(C)cc2)cs1)c1ccc(O)cc1` [3ap] to `C/C(=N\Nc1nc(-c2ccc(F)cc2)cs1)c1ccc(O)cc1` [3ar], the IC50 rises from 56 µM to 250 µM (4.5-fold). The first is the more potent here.

`C/C(=N\Nc1nc(-c2ccc(F)cc2)cs1)c1cc(O)cc(O)c1` [3av] and `C/C(=N\Nc1nc(-c2ccc(C)cc2)cs1)c1cc(O)cc(O)c1` [3at] are within 1.5-fold of each other in IC50: 37.1 µM for the first, 27.7 µM for the second.

`C/C(=N\Nc1nc(-c2ccccc2)cs1)c1cc(O)cc(O)c1` [3as] and `C/C(=N\Nc1nc(-c2ccccc2)cs1)c1ccc(O)cc1` [3ao] cannot be ordered by IC50: over 100 µM for the first, 114 µM for the second.

Same assay, conditions: IC50 (µM), DENV protease inhibitory activity, 5 µM substrate, 10 nM NS2b-NS3pro, compounds at 1, 10 and 100 µM, 1 h at RT; compounds 3s-3an

Compared with `C/C(=N\Nc1nc(-c2cccc([N+](=O)[O-])c2)cs1)c1ccc(F)cc1` [3ad], `C/C(=N\Nc1nc(-c2cccc([N+](=O)[O-])c2)cs1)c1ccc(O)cc1` [3u] is lower in IC50: over 100 µM for the first, 28.7 µM for the second. The second is the more potent here.

`COc1ccc(OC)c(/C(C)=N/Nc2nc(-c3ccc(Cl)cc3)cs2)c1` [3ak] and `COc1ccc(/C(C)=N/Nc2nc(-c3ccc(Cl)cc3)cs2)c(OC)c1` [3aj] cannot be ordered by IC50: 124 µM for the first, over 100 µM for the second.

`COc1ccc(OC)c(/C(C)=N/Nc2nc(-c3cccc([N+](=O)[O-])c3)cs2)c1` [3aa] and `COc1ccc(/C(C)=N/Nc2nc(-c3cccc([N+](=O)[O-])c3)cs2)c(OC)c1` [3z] cannot be ordered by IC50: over 100 µM for the first, 171 µM for the second.

First: C/C(=N\Nc1nc(-c2ccc(Cl)cc2)cs1)c1cc(O)cc(O)c1 [3ag]
Second: C/C(=N\Nc1nc(-c2ccc(Cl)cc2)cs1)c1ccc(O)cc1 [3af]
The IC50 of the first is 1.6-fold lower: 92.3 µM for the first, 144 µM for the second. The first is the more potent here.

Compared with `COc1ccc(/C(C)=N/Nc2nc(-c3cccc([N+](=O)[O-])c3)cs2)cc1OC` [3ab], `COc1cccc(/C(C)=N/Nc2nc(-c3cccc([N+](=O)[O-])c3)cs2)c1` [3x] is 12-fold higher in IC50: 31.4 µM for the first, 387 µM for the second. The first is the more potent here.

Going from `COc1ccc(/C(C)=N/Nc2nc(-c3cccc([N+](=O)[O-])c3)cs2)cc1` [3y] to `C/C(=N\Nc1nc(-c2cccc([N+](=O)[O-])c2)cs1)c1ccc(C)cc1` [3t], the IC50 falls from 328 µM to 113 µM (2.9-fold). The second is the more potent here.

First: COc1cccc(/C(C)=N/Nc2nc(-c3ccc(Cl)cc3)cs2)c1 [3ah]
Second: COc1ccc(/C(C)=N/Nc2nc(-c3ccc(Cl)cc3)cs2)cc1 [3ai]
The IC50 of the first is 1.5-fold lower: 263 µM for the first, 399 µM for the second. The first is the more potent here.

`C/C(=N\Nc1nc(-c2cccc([N+](=O)[O-])c2)cs1)c1ccc(Cl)cc1` [3ac] and `C/C(=N\Nc1nc(-c2ccc(Cl)cc2)cs1)c1ccc(C)cc1` [3ae] cannot be ordered by IC50: over 100 µM for the first, over 100 µM for the second.

First: COc1ccccc1/C(C)=N/Nc1nc(-c2cccc([N+](=O)[O-])c2)cs1 [3w]
Second: C/C(=N\Nc1nc(-c2cccc([N+](=O)[O-])c2)cs1)c1cc(O)cc(O)c1 [3v]
The IC50 of the first is 7-fold higher: 193 µM for the first, 27.4 µM for the second. The second is the more potent here.

`COc1ccc(/C(C)=N/Nc2nc(-c3ccc(Cl)cc3)cs2)cc1OC` [3al] and `C/C(=N\Nc1nc(-c2ccc(Cl)cc2)cs1)c1ccc(F)cc1` [3an] cannot be ordered by IC50: 156 µM for the first, over 100 µM for the second.

Same assay, conditions: protease IC50, -H replaced by -CH3 at R1

`COc1ccc(/C(C)=N/Nc2nc(-c3cccc([N+](=O)[O-])c3)cs2)cc1OC` [3ab] was tested, and the “fold improvement in potency in comparison with 3e” value was ~ 16 fold.
